Laboratory results as given in patent US9315545B2, “Hepcidin mimetic peptides and uses thereof” (MERGANSER BIOTECH, INC., priority 2014, dated 2016).
Converted amounts (≈) assume the structure as drawn. “Also recorded” adds a separate entry of the source.

Tests used:
[1] = Compound blood levels after subcutaneous administration in the rat (LC/MS); type: in vivo; details: in vivo, sc, 7.5 mg/kg
Protocol: (§1) Compounds 1-4 were tested in rats to determine compound pharmacokinetics and hepcidin mimetic activity in vivo as measured by serum iron reduction. The effectiveness of the compounds for serum iron reduction should correlate with the treatment of iron metabolism disorders. Individual compounds, in this example and the following examples were generally formulated in DSPE-PEG(2000) (SUNBRIGHT® DSPE-020CN, NOF America Corporation) (30 mg/mL) and dosed subcutaneously at a compound dose of 7.5 mg/kg.
(§2) The compound was prepared according to the following typical preparation. The dosing solution was prepared (7.5 mg compound/mL in clear solution) by weighing the compound into vial and an aliquot of ethanol is added into the vial and mixture vortexed. DSPE-020CN was added and the solution was vortexed, and, if necessary, the mixture was heated at 37° C. for 10-15 minutes to fully dissolve the DSPE-020CN. The ethanol was evaporated with nitrogen gas stream for 1-3 hours. Sterile water was then added and the mixture was vortexed or, if necessary, sonicated to give a clear solution.
After subcutaneous injection compound quantities in blood were measured over the subsequent 24 hours via LC/MS.

[2] = type: physicochemical
Protocol: An additional critical aspect in drug delivery is retention of solubility with time (physical stability), especially under refrigerated conditions. […] Unexpectedly, clear differences in physical stability were observed between Compound 5 and other compounds with only minor changes in sequence (e.g. Compounds 7 and 8). The combination of unexpected solubility of greater than 100 mg/mL in mildly acidic conditions and lack of significant changes in solution character after refrigeration, are unexpected and advantageous for a pharmaceutical product.

[3] = Stability in sodium acetate buffer pH 6 at two temperatures, reversed-phase HPLC; type: physicochemical; details: for % Purity of the Compound, 6 Hours 25° C. / % Purity of the Compound, 6 Hours 40° C.: sodium acetate buffer pH 6, 6 hours; for Change in Main Peak % Area After 18 H Incubation, 25° C. / Change in Main Peak % Area After 18 H Incubation, 40° C.: sodium acetate buffer pH 6, 18 h; for % Purity of the Compound, 18 Hours 25° C. / % Purity of the Compound, 18 Hours 40° C.: sodium acetate buffer pH 6, 18 hours; for % Purity of the Compound, Initial: sodium acetate buffer pH 6, initial
Protocol: Three other compounds were also tested, Compound 2, Compound 3, and Compound 4. Compounds 2, 3, and 4 are modifications of Compound 1 at the sidechain of Cysteine 7. Compound 2 has a disulfide bond attached to Cysteine 7, Compound 3 has thioester bond attached to Cysteine 7, and Compound 4 has an ethyl group attached to the sidechain sulfur of Cysteine 7. The peptides were incubated in sodium acetate buffer pH 6 at two temperature conditions and then analyzed via reversed-phase HPLC. The chromatography performed was with an Ascentis Phenyl 2.7 micron column (4.6×150 mm). The binary gradient (1 ml/min) was 36% to 56% B in 40 minutes followed by an increase to 65% B in 5 minutes where A=0.1% trifluoroacetic acid in water and B=0.1% trifluoroacetic acid in acetonitrile.

physchem = type: physicochemical
Protocol: Different solvent compositions with different properties that are commonly used as a basis for pharmaceutical compositions were added to known quantities of the indicated compound and mixed. If a clear solution was not obtained, additional solvent was added and the solution mixed. […] For example “50-100” would indicate that the compound was not soluble at 100 mg/mL but upon additional solvent to have a final concentration of 50 mg/mL, the compound was soluble.

[4] = In vitro stability of compounds in rat plasma (37° C.); type: in vitro ADME; details: for half-life: rat, plasma
Protocol: The in vitro stability of Compounds 1-4 in rat plasma at 37° C. was examined to give an indication of stability in a whole animal model (Table 6).

serum iron = assay: Serum iron reduction after subcutaneous administration in the rat (hepcidin mimetic activity); type: in vivo; details: 7.5 mg/kg
Protocol: as §1, §2
Serum iron was measured during the 24 h following subcutaneous administration in a rat of Compounds 1-4 and is summarized in FIG. 1. […] The observed effects on serum iron were unexpectedly similar in Compounds 1-3 despite the differences at Cysteine 7 and the differences in blood levels of the compounds (Table 7).

[5] = Solubility (mg/mL) at Ambient Temperature, 30% PEG 400
[6] = Solubility (mg/mL) at Ambient Temperature, 50% EtOH/water
[7] = Solubility (mg/mL) at Ambient Temperature, Water
[8] = pH 2.3, Solubility (mg/mL) at Ambient Temperature, 10% Tween 80 pH 2.3-2.8
[9] = pH 2.7, Solubility (mg/mL) at Ambient Temperature, 50% propylene glycol, pH 2.7
[10] = pH 4.5, Solubility (mg/mL) at Ambient Temperature, 10% Tween 80 pH 4.5-5.0
[11] = pH 5.5, Solubility (mg/mL) at Ambient Temperature, 10% Tween 80 pH 5.5-6.0

Row | SMILES | AUC(0-t) [1] [ng·h/mL] | blood levels of Compound 1 (metabolite) after dosing the labelled compound [1] | % Purity of the Compound, 6 Hours 25° C. [3] [%] | % Purity of the Compound, 6 Hours 40° C. [3] [%] | Change in Main Peak % Area After 18 H Incubation, 25° C. [3] [%] | Change in Main Peak % Area After 18 H Incubation, 40° C. [3] [%] | % Purity of the Compound, 18 Hours 25° C. [3] [%] | % Purity of the Compound, 18 Hours 40° C. [3] [%] | % Purity of the Compound, Initial [3] [%] | solubility (physchem; [5]) [mg/mL] | solubility (physchem; [6]) [mg/mL] | solubility (physchem; [7]) [mg/mL] | solubility (physchem; [8]) [mg/mL] | solubility (physchem; [9]) [mg/mL] | solubility (physchem; [10]) [mg/mL] | solubility (physchem; [11]) [mg/mL] | In vitro plasma stability (Ratio of compound/benfluorex (std) degradation) [4] | half-life [4] [h] | also measured
1 | CCCCCCCCCCCCCCCCNC(=O)CN(CC(N)=O)C(=O)CCCCCNC(=O)C(Cc1c[nH]c2ccccc12)NC(=O)C(CCCNC(=N)N)NC(=O)C(CSSC)NC(=O)C(CCCNC(=N)N)NC(=O)CC1CCCN1C(=O)C(NC(=O)C(Cc1c[nH]cn1)NC(=O)C(NC(=O)CNCC(=O)O)C(C)O)C(c1ccccc1)c1ccccc1 (stereo not shown) [Compound 2] | 1010 | unexpectedly higher than expected | 99.6 | 99.4 | −0.2 | −0.1 | 99.3 | 99.4 | 99.5 | 25 to 35 (≈ 13.9 to 19.4 mM) | > 100 | 50 to 100 (≈ 27.7 to 55.4 mM) | 60 to 100 (≈ 33.3 to 55.4 mM) | 50 to 100 (≈ 27.7 to 55.4 mM) | 50 to 100 (≈ 27.7 to 55.4 mM) | 25 to 30 (≈ 13.9 to 16.6 mM) | 0.98 | 0.667 | Solution Appearance after 7 days Storage at 2-8° C., 2% Tween 80 pH 5 ([2]; 2% Tween 80 pH 5): Gel; Solution Appearance after 7 days Storage at 2-8° C., 2% Tween pH 6.4 ([2]; 2% Tween pH 6.4): Gel; Solution Appearance after 7 days Storage at 2-8° C., 10% Tween 80 pH 2.3-2.8 ([2]; 10% Tween 80 pH 2.3-2.8): Gel; Solution Appearance after 7 days Storage at 2-8° C., 10% Tween 80 pH 4.5-5.0 ([2]; 10% Tween 80 pH 4.5-5.0): Gel; Solution Appearance after 7 days Storage at 2-8° C., 30% PEG 400 ([2]; 30% PEG 400): Gel; Solution Appearance after 7 days Storage at 2-8° C., 50% EtOH/water ([2]; 50% EtOH/water): Gel; Solution Appearance after 7 days Storage at 2-8° C., 50% propylene glycol, pH 2.7 ([2]; 50% propylene glycol, pH 2.7): Gel; Solution Appearance after 7 days Storage at 2-8° C., Water ([2]; Water): Gel; degradation after 18 hours at 40° C. (in words) [3]: little degradation observed; significant degradation peaks observed by HPLC [3]: no significant degradation peak; change of solubility with pH (in words) (physchem; pH 4): marked decrease in solubility above pH 4; solubility (physchem; pH 5, Solubility (mg/mL) at Ambient Temperature, 2% Tween 80 pH 5): < 50 mg/mL; solubility (physchem; pH 6.4, Solubility (mg/mL) at Ambient Temperature, 2% Tween pH 6.4): < 10 mg/mL
2 | CCCCCCCCCCCCCCCCNC(=O)CN(CC(N)=O)C(=O)CCCCCNC(=O)C(Cc1c[nH]c2ccccc12)NC(=O)C(CCCNC(=N)N)NC(=O)C(CSC(C)=O)NC(=O)C(CCCNC(=N)N)NC(=O)CC1CCCN1C(=O)C(NC(=O)C(Cc1c[nH]cn1)NC(=O)C(NC(=O)CNCC(=O)O)C(C)O)C(c1ccccc1)c1ccccc1 (stereo not shown) [Compound 3] | 12200 | comparable to the levels observed when just Compound 1 was dosed | 96.9 | 84.9 | −2.3 | −30 | 95.1 | 67.2 | 97.3 |  |  |  |  |  |  |  | 1.78 | 1.22 | blood levels relative to those observed in Compound 1 [1]: 5-9 times; degradation after 18 hours at 40° C. [3]: 30%; significant degradation peaks observed by HPLC [3]: multiple major peaks
3 | CCCCCCCCCCCCCCCCNC(=O)CN(CC(N)=O)C(=O)CCCCCNC(=O)C(Cc1c[nH]c2ccccc12)NC(=O)C(CCCNC(=N)N)NC(=O)C(CSCC)NC(=O)C(CCCNC(=N)N)NC(=O)CC1CCCN1C(=O)C(NC(=O)C(Cc1c[nH]cn1)NC(=O)C(NC(=O)CNCC(=O)O)C(C)O)C(c1ccccc1)c1ccccc1 (stereo not shown) [Compound 4] | 25600 | No levels of Compound 1 were detected | 96.8 | 96.6 | −0.5 | 0.3 | 96.2 | 97.0 | 96.7 |  |  |  |  |  |  |  | 2.74 | 1.87 | blood levels of the dosed compound (in words) [1]: very high blood levels; degradation after 18 hours at 40° C. (in words) [3]: no evidence of degradation involving the cysteine; reduction in serum iron (in words) (serum iron): minimal reduction in serum iron after 24 h; also recorded: little activity in vivo
4 | CCCCCCCCCCCCCCCCNC(=O)CN(CC(N)=O)C(=O)CCCCCNC(=O)[C@H](Cc1c[nH]c2ccccc12)NC(=O)[C@H](CCCNC(=N)N)NC(=O)[C@H](CSSC)NC(=O)[C@H](CCCNC(=N)N)NC(=O)[C@@H]1CCCN(C(=O)[C@@H](NC(=O)[C@H](Cc2c[nH]cn2)NC(=O)[C@@H](NC(=O)CNCC(=O)O)[C@@H](C)O)C(c2ccccc2)c2ccccc2)C1 [Compound 7] |  |  |  |  |  |  |  |  |  | > 35 | > 100 | 50 to 100 (≈ 27.7 to 55.4 mM) | > 100 | > 100 | > 50 | 50 to 100 (≈ 27.7 to 55.4 mM) |  |  | 
5 | CCCCCCCCCCCCCCCCNC(=O)CN(CC(N)=O)C(=O)CCCCCNC(=O)[C@H](Cc1c[nH]c2ccccc12)NC(=O)[C@H](CCCNC(=N)N)NC(=O)[C@H](CSSC)NC(=O)[C@H](CCCNC(=N)N)NC(=O)C1CCN(C(=O)[C@@H](NC(=O)[C@H](Cc2c[nH]cn2)NC(=O)[C@@H](NC(=O)CNCC(=O)O)[C@@H](C)O)C(c2ccccc2)c2ccccc2)CC1 [Compound 8] |  |  |  |  |  |  |  |  |  | 25 to 35 (≈ 13.9 to 19.4 mM) | > 100 | 50 to 100 (≈ 27.7 to 55.4 mM) | 40 to 70 (≈ 22.2 to 38.8 mM) | 30 to 50 (≈ 16.6 to 27.7 mM) | > 50 | 50 to 100 (≈ 27.7 to 55.4 mM) |  |  | 
6 | CCCCCCCCCCCCCCCCNC(=O)CN(CC(N)=O)C(=O)CCCCCNC(=O)[C@H](Cc1c[nH]c2ccccc12)NC(=O)[C@H](CCCNC(=N)N)NC(=O)[C@H](CSSC)NC(=O)[C@H](CCCNC(=N)N)NC(=O)C[C@@H]1CCCN1C(=O)[C@@H](NC(=O)[C@H](Cc1c[nH]cn1)NC(=O)[C@@H](NC(=O)CN(CC(=O)O)C(=O)CNC(C)=O)[C@@H](C)O)C(c1ccccc1)c1ccccc1 [Compound 9] |  |  |  |  |  |  |  |  |  | 20 to 35 (≈ 10.5 to 18.4 mM) | > 100 | 50 to 100 (≈ 26.3 to 52.5 mM) | 30 to 50 (≈ 15.8 to 26.3 mM) | 30 to 50 (≈ 15.8 to 26.3 mM) | 25 to 50 (≈ 13.1 to 26.3 mM) | 25 to 35 (≈ 13.1 to 18.4 mM) |  |  | 
7 | CCCCCCCCCCCCCCCCNC(=O)CN(CC(N)=O)C(=O)CCCCCNC(=O)[C@H](Cc1c[nH]c2ccccc12)NC(=O)[C@H](CCCNC(=N)N)NC(=O)[C@H](CSSC)NC(=O)[C@H](CCCNC(=N)N)NC(=O)CCNC(=O)[C@@H](NC(=O)[C@H](Cc1c[nH]cn1)NC(=O)[C@@H](NC(=O)CNCC(=O)O)[C@@H](C)O)C(c1ccccc1)c1ccccc1 [Compound 10] |  |  |  |  |  |  |  |  |  | < 10 | < 10 | < 25 | 15 to 20 (≈ 8.5 to 11.3 mM) | < 20 | < 10 | < 10 |  |  | solubility characteristics compared to the other compounds (in words) (physchem): does not improve solubility characteristics
